What was measured:
CYP2C9 = biological target: T1, CYP2C9 (Homo sapiens, UniProt P11712); test: Cytochrome P450 inhibition cocktail assay, human liver microsomes; assay type: in vitro ADME; conditions: probe diclofenac, metabolite 4-OH-diclofenac
T1 construct: Twenty microliters of human liver microsomes (final concentration of 0.3 mg/mL); from tissue; host or cells: human liver microsomes
Description: (§1) The cytochrome P450 (CYP) proteins form a large family of heme proteins that catalyze many reactions involved xenobiotic metabolism and biosynthesis of cholesterol, steroids, and other lipid components. Some chemicals could affect the disposition of conventional pharmaceuticals through the inhibition of CYP450 enzymes. […] The selective probe substrate concentrations were prepared near to its respective Km value, and the compound 3 concentration range is from […].
(§2) Compound 3 was screened for its ability to inhibit cytochrome P450 using a cocktail assay described previously. Briefly, 50 μL of compound 3 was added to 96-well plates, with final concentrations of 0.05, 0.1, 0.5, 1, 10, 50, and 100 μM, respectively. Twenty microliters of human liver microsomes (final concentration of 0.3 mg/mL) and 20 μL of probe substrates (Table 3) in 0.1 M Tris were added. After preincubation at 37 °C for 10 min, 10 μL of NADPH was added (final concentration of 1 mM), and the reaction started to incubate at the same temperature for 15 min. The reactions were then quenched by the addition of 100 μL of acetonitrile with a mixture of propranolol and nadolol (50 nM) used as an internal standard. After reactions were finished, the plates were centrifuged and the supernatants were analyzed for the five metabolites (Table 3) by LC/MS/MS.

CYP1A2 = biological target: T2, CYP1A2 (Homo sapiens, UniProt P05177); test: as above; assay type: in vitro ADME; conditions: probe phenacetin, metabolite acetaminophen
T2 construct: Twenty microliters of human liver microsomes (final concentration of 0.3 mg/mL); from tissue; host or cells: human liver microsomes
T2 sequence (P05177 1-516): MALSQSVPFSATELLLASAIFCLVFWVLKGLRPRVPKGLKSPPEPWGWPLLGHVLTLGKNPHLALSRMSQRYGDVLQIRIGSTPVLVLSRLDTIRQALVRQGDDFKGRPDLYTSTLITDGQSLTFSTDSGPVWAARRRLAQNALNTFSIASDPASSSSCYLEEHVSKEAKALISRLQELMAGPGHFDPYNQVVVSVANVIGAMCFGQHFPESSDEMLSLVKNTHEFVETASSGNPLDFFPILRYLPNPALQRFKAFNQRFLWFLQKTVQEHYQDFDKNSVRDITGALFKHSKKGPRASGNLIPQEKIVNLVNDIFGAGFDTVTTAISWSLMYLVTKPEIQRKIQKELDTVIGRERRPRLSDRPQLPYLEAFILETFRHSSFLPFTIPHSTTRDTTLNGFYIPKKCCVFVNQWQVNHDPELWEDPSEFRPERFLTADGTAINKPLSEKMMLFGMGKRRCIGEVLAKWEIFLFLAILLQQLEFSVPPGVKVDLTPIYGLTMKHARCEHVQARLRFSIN
Description: as §1, §2

CYP2C19 = biological target: T3, CYP2C19 (Homo sapiens, UniProt P33261); test: as above; assay type: in vitro ADME; conditions: probe mephenytoin, metabolite 4-OH-S-mephenytoin
T3 construct: Twenty microliters of human liver microsomes (final concentration of 0.3 mg/mL); from tissue; host or cells: human liver microsomes
T3 sequence (P33261 whole entry): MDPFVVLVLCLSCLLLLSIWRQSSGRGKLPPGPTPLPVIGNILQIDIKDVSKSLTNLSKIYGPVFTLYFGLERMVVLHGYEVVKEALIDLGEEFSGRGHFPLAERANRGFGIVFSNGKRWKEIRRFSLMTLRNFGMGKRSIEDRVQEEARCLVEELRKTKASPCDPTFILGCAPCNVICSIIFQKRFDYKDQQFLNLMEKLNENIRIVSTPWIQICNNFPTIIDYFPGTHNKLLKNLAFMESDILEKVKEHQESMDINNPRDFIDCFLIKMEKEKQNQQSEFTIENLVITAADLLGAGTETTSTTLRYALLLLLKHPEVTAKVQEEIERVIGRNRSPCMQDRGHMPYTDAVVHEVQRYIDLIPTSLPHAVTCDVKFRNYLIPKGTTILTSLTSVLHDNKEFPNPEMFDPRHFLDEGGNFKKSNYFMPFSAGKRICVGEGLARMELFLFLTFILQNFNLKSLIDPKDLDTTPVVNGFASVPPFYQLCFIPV
Description: as §1, §2

S. vitulinus = test: Oxford cup assay, zone of inhibition; assay type: cell-based, Staphylococcus vitulinus; conditions: Mammaliicoccus vitulinus
Description: The Oxford cup assays were carried out to evaluate the antibacterial activities against the above-mentioned six bacterial strains. The zones of inhibition for two concentrations (320 and 160 μg/mL) of the synthetic compounds and tiamulin fumarate were measured. The results of Oxford cup assay correspond with that obtained by agar dilution method (MICs) as a whole.
The procedure for Oxford cup assays was the same as that previously reported. Briefly, inoculums were prepared in 0.9% saline using McFarland standard and spread uniformly on nutrient agar plates. The 320 and 160 µg/mL of all the tested compounds were added individually into the Oxford cups that were placed at equal distances above the agar surfaces. The zone of inhibition for each concentration was measured after a 24–36 h incubation at 37 °C. The same procedure was repeated in triplicate.

T1 sequence (P11712 whole entry): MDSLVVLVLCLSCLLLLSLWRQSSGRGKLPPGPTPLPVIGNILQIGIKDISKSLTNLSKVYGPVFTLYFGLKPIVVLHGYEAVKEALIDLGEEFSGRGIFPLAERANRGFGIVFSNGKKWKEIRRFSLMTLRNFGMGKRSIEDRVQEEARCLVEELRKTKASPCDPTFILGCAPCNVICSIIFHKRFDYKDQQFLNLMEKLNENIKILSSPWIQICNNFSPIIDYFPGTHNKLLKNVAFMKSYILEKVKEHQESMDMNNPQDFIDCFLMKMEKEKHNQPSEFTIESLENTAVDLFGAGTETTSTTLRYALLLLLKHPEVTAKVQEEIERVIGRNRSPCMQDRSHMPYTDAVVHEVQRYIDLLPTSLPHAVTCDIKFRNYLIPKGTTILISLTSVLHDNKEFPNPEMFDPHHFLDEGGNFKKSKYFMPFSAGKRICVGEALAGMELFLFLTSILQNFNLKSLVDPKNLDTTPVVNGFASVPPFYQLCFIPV

C=C[C@]1(C)C[C@@H](OC(=O)CSc2nc3ccc(N)cc3[nH]2)[C@]2(C)[C@H](C)CC[C@]3(CCC(=O)[C@H]32)[C@@H](C)[C@@H]1O [Compound 3, 14-O-((5-Amino-benzimidazole-2-yl)thioacetyl) Mutilin]
IC50 (CYP2C9): 10.7 µM | IC50 (CYP1A2): > 50 µM | IC50 (CYP2C19): > 50 µM | zone of inhibition at 160 µg/mL (S. vitulinus; 160 µg/mL): 25.5 mm | zone of inhibition at 320 µg/mL (S. vitulinus; 320 µg/mL): 29.6 mm

Source: paper PMC6273978, “Synthesis and Pharmacological Evaluation of Novel Pleuromutilin Derivatives with Substituted Benzimidazole Moieties” (Molecules, 2016)
